From US20090197811A1, “ORALLY ADMINISTERED PEPTIDES TO IMPROVE OR PREVENT HEPATIC FIBROSIS” (University of Southern California, priority 2007, published 2009)
Non-standard residues stand in square brackets, D forms with d.

Key:
C57Bl/6J mice [1] = test: Western diet model: biochemical findings and liver and body weights; format: in vivo, mouse; conditions: for GSH / TBARS: liver; for ALT / AST / Adiponectin / Cholesterol / Glucose / Insulin / Leptin / Triglycerides: serum
Experimental: SR141716 was a kind gift from Sanofi-Aventis, France. SR141716 was dissolved in water with 0.1% Tween and given daily by gavage for 10 weeks. D-4F is an 18-mer of D-amino acids (Ac-D-W-F-K-A-F-Y-D-K-V-A-E-K-F-K-E-A-F-NH2)^4 (SEQ ID NO: 1) that was commercially synthesized (A & A Laboratories, San Diego Calif.) with 80% purity. D-4F was dissolved in the drinking water at a concentration of 60 μg/ml water for a calculated dose corrected for drug purity of 125 μg D-4F/mouse/day.
The high fat diet used was the RD “Western diet” (Research Diets, D12079B), which contains 41% of calories from fat, 43% calories from carbohydrate, and 17% of calories from protein); this diet was designed to approximate the “typical” human diet of North America and Europe.
(§1) Studies were performed in male C5713L/6J mice (Jackson Laboratories, Bar Harbor Me.). Six groups were studied (n=3-5, see FIG. 1) with 4 mice per group at the outset, except for group 2, which was started with n=5; 1 mouse died in group 1. Groups 1, 2, and 3 received the Western diet for 9.5 months; during the last 2.5 months of the 9.5 months, group 2 received SR141716 10 mg/kg/day i.g., and group 3 received D-4F, 125 μg/mouse/day, in the drinking water. Groups 4, 5, and 6 received the Western diet for 7 months followed by standard chow for 2.5 months; during the 2.5 months on standard chow, group 5 received SR141716 and group 6 received D-4F as described for groups 2 and 3, respectively. Additional control groups were studied: 6-month old C57Bl/6J mice as age-matched controls (n=5) and C57Bl/6J mice that received the Western diet for 6 months (n=6).
Serum aspartate amino transferase (AST) and alanine aminotransferase (ALT) were measured with the Infinity AST and ALT liquid assay reagent (Thermo Electron Corporation, Louisville Colo., cat #TR70121 and TR71121). Serum triglycerides and cholesterol were measured with the Infinity cholesterol assay reagent (Thermo Electron Corporation, Louisville Colo., cat #TR22321 and TR13315). Serum glucose was measured with the Glucose (HK) assay kit (Sigma, St. Louis, Mo., cat #GAHK-20). Serum insulin was measured with the Mercodia Ultrasensitive mouse insulin ELISA kit (ALPCO Diagnostics, Salem N.H., cat #10 1150-01). The homeostasis model assessment insulin resistance index (HOMA-IR) was calculated as [fasting glucose (mmol/liter)*fasting insulin (microunits/ml)]/22.5^17, 18. Serum leptin was measured with the TiterZyme EIA mouse leptin kit (Assay Designs Inc, Ann Arbor Mich., cat #900-019). Serum adiponectin was measured with the mouse adiponectin kit (Biovendor LLC, Candler N.C., cat #RD 293023100). Thiobarbituric acid reactive substance (TBARS) was measured as previously described^19, 20; in brief, liver was homogenized and diluted 1:1 in 10% ice cold trichloroacetic acid. 0.5 ml supernatant or of a standard solution of 1,1,3,3-tetraethoxypropane was mixed with 0.5 ml of 0.6% (w/v) 4,6-dihydroxy-2-thiopyrimidine. The solution was boiled for 30 min, cooled and centrifuged. Absorbance was measured at 532 nm with a Shimadzu TV-2101 PC spectrophotometer. To measure hepatic glutathione (GSH), liver was homogenized and diluted 1:1 in 10% ice cold trichloroacetic acid. GSH in the supernatant was measured according to the recycling assay of Tietze^21.

C57Bl/6J mice [2] = test: Western diet model: fibrosis by Sirius red whole-section-scanning morphometric image analysis; format: in vivo, mouse
Experimental: as §1
Sirius red staining was performed by the Morphology core of the USC-UCLA Research Center for Alcoholic Liver and Pancreatic Diseases. α-Smooth muscle actin.
Tissue sections stained with Sirius red were scanned by a third-generation Automated Cellular Imaging System (ACIS III), a highly automated microscope-based digital imaging system (Carl Zeiss MicroImaging AIS Inc., Aliso Viejo Calif.). The color of the Sirius red staining in the digitized tissue sections was determined and applied to a pre-existing algorithm that provides the area of a target color in μm^2. The outline of each digitized tissue section was manually traced using the computer's mouse. Areas of large portal tracts and central veins were also outlined manually. The total area (μm^2) of each tissue section and of the total area of large portal tracts and central veins were determined by the image analysis system. The area of fibrosis was calculated as [total area stained by Sirius red minus perivascular staining] as a percentage of the size of the tissue section. This method has the advantage of scanning the entire section, rather than measuring fibrosis in randomly chosen fields.

[3] = 7 months Western diet followed by 2.5 months Western diet + drug
[4] = 7 months Western diet followed by 2.5 months chow + drug
[5] = group 3 vs group 1, Western diet 9.5 months, D-4F last 2.5 months

What does the source list for “Ac-D-W-F-K-A-F-Y-D-K-V-A-E-K-F-K-E-A-F-NH2 (Ac-[dD][dW][dF][dK][dA][dF][dY][dD][dK][dV][dA][dE][dK][dF][dK][dE][dA][dF]-NH2; not fully specified; printed as Ac-D-W-F-K-A-F-Y-D-K-V-A-E-K-F-K-E-A-F-NH2) [D-4F]”?
Body weight (C57Bl/6J mice [1]; [3]): 39.5 ± 0.8 g; HOMA-IR (C57Bl/6J mice [1]; [3]): 63.3 ± 23.5; Liver weight (C57Bl/6J mice [1]; [3]): 2.42 ± 0.04 g; Body weight (C57Bl/6J mice [1]; [4]): 35.9 ± 3.2 g; HOMA-IR (C57Bl/6J mice [1]; [4]): 16.5 ± 2.2; Liver weight (C57Bl/6J mice [1]; [4]): 1.67 ± 0.19 g; body weight, liver weight, serum transaminases, hyperglycemia, hyperinsulinemia, insulin resistance, overall hepatic oxidative stress (C57Bl/6J mice [1]; [5]): no improvement; leptin levels compared to mice on Western diet alone (C57Bl/6J mice [1]; [5]): decreased by half; total cholesterol compared to mice on Western diet alone (C57Bl/6J mice [1]; [5]): decreased by half; GSH (C57Bl/6J mice [1]; [3]): 50.1 ± 5.8 nmole/mg protein; TBARS (C57Bl/6J mice [1]; [3]): 29.4 ± 2.4 nmol/g tissue; GSH (C57Bl/6J mice [1]; [4]): 82.8 ± 5.2 nmole/mg protein; TBARS (C57Bl/6J mice [1]; [4]): 20.0 ± 0.6 nmol/g tissue; ALT (C57Bl/6J mice [1]; [3]): 277.3 ± 18.2 U/L; AST (C57Bl/6J mice [1]; [3]): 211.9 ± 19.1 U/L; Adiponectin (C57Bl/6J mice [1]; [3]): 15.3 ± 1.0 µg/mL; Cholesterol (C57Bl/6J mice [1]; [3]): 146.8 ± 2.1 mg/dL; Glucose (C57Bl/6J mice [1]; [3]): 231.2 ± 18.0 mg/dL; Insulin (C57Bl/6J mice [1]; [3]): 3.7 ± 1.1 ng/mL; Leptin (C57Bl/6J mice [1]; [3]): 17.49 ± 1.41 ng/mL; Triglycerides (C57Bl/6J mice [1]; [3]): 40.0 ± 6.7 mg/dL; ALT (C57Bl/6J mice [1]; [4]): 69.1 ± 21.5 U/L; AST (C57Bl/6J mice [1]; [4]): 104.2 ± 22.4 U/L; Adiponectin (C57Bl/6J mice [1]; [4]): 18.52 ± 1.5 µg/mL; Cholesterol (C57Bl/6J mice [1]; [4]): 120.8 ± 2.9 mg/dL; Glucose (C57Bl/6J mice [1]; [4]): 159.2 ± 2.4 mg/dL; Insulin (C57Bl/6J mice [1]; [4]): 1.46 ± 0.2 ng/mL; Leptin (C57Bl/6J mice [1]; [4]): 8.70 ± 1.43 ng/mL; Triglycerides (C57Bl/6J mice [1]; [4]): 49.1 ± 1.4 mg/dL; fibrosis (surface area positive for Sirius red staining) (C57Bl/6J mice [2]; group 3: Western diet 9.5 months, D-4F 125 μg/mouse/day in drinking water last 2.5 months, group 1 without drug 4.6±1.9%): 1.25%; fibrosis (surface area positive for Sirius red staining) (C57Bl/6J mice [2]; group 6: 7 months Western diet, then 2.5 months chow plus D-4F, group 4 chow alone 2.8±0.7%): 0.9±0.2%; progression of fibrosis after onset of steatohepatitis (C57Bl/6J mice [2]; summary statement): prevented progression of fibrosis
